Columns and labels:
Format in all cases: cell-based
Design in all cases: unit not given here
[1] = tested on: Staphylococcus Aureus; assay: in vitro antibacterial activity, agar dilution (Staphylococcus aureus)
Method: (§1) *minimum inhibitory concentrations were determined by the Agardilution

[2] = tested on: Staphylococcus Epi; assay: in vitro antibacterial activity, agar dilution (Staphylococcus epi)
Method: as §1

[3] = tested on: Streptococcus A; assay: in vitro antibacterial activity, agar dilution (Streptococcus A); conditions: strain C203
Method: as §1

[4] = tested on: Streptococcus pn; assay: in vitro antibacterial activity, agar dilution (Streptococcus pn); conditions: strain PARK
Method: as §1

[5] = tested on: Streptococcus D; assay: in vitro antibacterial activity, agar dilution (Streptococcus D)
Method: as §1

[6] = tested on: H. Influ.; assay: in vitro antibacterial activity, agar dilution (H. influ.)
Method: as §1

[7] = tested on: E. coli; assay: in vitro antibacterial activity, agar dilution (E. coli)
Method: as §1

[8] = tested on: Klebsiella; assay: in vitro antibacterial activity, agar dilution (Klebsiella)
Method: as §1

[9] = tested on: Enterbacter Aerogenes; assay: in vitro antibacterial activity, agar dilution (Enterobacter aerogenes)
Method: as §1

[10] = tested on: Enterbacter Cloacea; assay: in vitro antibacterial activity, agar dilution (Enterobacter cloacae)
Method: as §1

[11] = tested on: Salmonella; assay: in vitro antibacterial activity, agar dilution (Salmonella)
Method: as §1

[12] = tested on: Pseudomonas; assay: in vitro antibacterial activity, agar dilution (Pseudomonas)
Method: as §1

[13] = tested on: Serratia; assay: in vitro antibacterial activity, agar dilution (Serratia)
Method: as §1

[14] = tested on: Shig. sonn; assay: in vitro antibacterial activity, agar dilution (Shig. sonn); conditions: strain N9
Method: as §1

[15] = tested on: Proteus morg; assay: in vitro antibacterial activity, agar dilution (Proteus morg); conditions: strain PR15
Method: as §1

[16] = tested on: Proteus incon; assay: in vitro antibacterial activity, agar dilution (Proteus incon); conditions: strain PR33
Method: as §1

[17] = tested on: Proteus rett; assay: in vitro antibacterial activity, agar dilution (Proteus rett); conditions: strain C24
Method: as §1

[18] = tested on: Citro; assay: in vitro antibacterial activity, agar dilution (Citro); conditions: strain CF17
Method: as §1

[19] = tested on: Acin; assay: in vitro antibacterial activity, agar dilution (Acin); conditions: strain AC12
Method: as §1

## CO/N=C(\C(=O)N[C@@H]1C(=O)N2C(C(=O)O)=C(c3csc(-c4ccccc4)n3)CC[C@H]12)c1csc(N)n1 [Example 31, Sodium 7β-[(2-aminothiazol-4-yl)-Z-methoximinoacetylamino]-1-carba-(1-dethia)-3-[2-(2-phenyl)thiazol-4-yl]-3-cephem-4-carboxylate]
[1]; strain S13E
  minimum inhibitory concentration: 128
[1]; strain V41
  minimum inhibitory concentration: 2
[1]; strain X1.1
  minimum inhibitory concentration: 1
[1]; strain X400
  minimum inhibitory concentration: > 128
[2]; strain 222
  minimum inhibitory concentration: 2
[2]; strain 270
  minimum inhibitory concentration: 8
[3]
  minimum inhibitory concentration: < .008
[4]
  minimum inhibitory concentration: < .008
[5]; strain 2041
  minimum inhibitory concentration: 4
[5]; strain X66
  minimum inhibitory concentration: > 128
[6]; res, strain 76
  minimum inhibitory concentration: .03
[6]; sens, strain C.L.
  minimum inhibitory concentration: .06
[7]; strain EC14
  minimum inhibitory concentration: 1
[7]; strain N10
  minimum inhibitory concentration: 2
[7]; strain TEM
  minimum inhibitory concentration: 1
[8]; strain KAE
  minimum inhibitory concentration: 1
[8]; strain X26
  minimum inhibitory concentration: .015
[8]; strain X68
  minimum inhibitory concentration: 1
[9]; strain C32
  minimum inhibitory concentration: 1
[9]; strain EB17
  minimum inhibitory concentration: 1
[10]; strain 265A
  minimum inhibitory concentration: 64
[10]; strain EB5
  minimum inhibitory concentration: 1
[11]; strain 1335
  minimum inhibitory concentration: 4
[11]; strain X514
  minimum inhibitory concentration: 2
[12]; strain PS18
  minimum inhibitory concentration: > 128
[12]; strain PS72
  minimum inhibitory concentration: > 128
[12]; strain X239
  minimum inhibitory concentration: > 128
[12]; strain X528
  minimum inhibitory concentration: > 128
[13]; strain SE3
  minimum inhibitory concentration: 8
[13]; strain X99
  minimum inhibitory concentration: 4
[14]
  minimum inhibitory concentration: 1
[15]
  minimum inhibitory concentration: 2
[16]
  minimum inhibitory concentration: .5
[17]
  minimum inhibitory concentration: .25
[18]
  minimum inhibitory concentration: 4
[19]
  minimum inhibitory concentration: 128

## CON=C(C(=O)NC1C(=O)N2C(C(=O)[O-])=C(c3csc(-c4ccc[n+](C)c4)n3)CCC12)c1csc(N)n1 (stereo not drawn) [Example 34, 7β-[(2-aminothiazol-4-yl)-Z-methoximinoacetylamino]-1-carba-(1-dethia)-3-[2-(1-methyl-3-pyridyl)thiazol-4-yl]-3-cephem-4-carboxylic acid]
[1]; strain S13E
  minimum inhibitory concentration: > 128
[1]; strain V41
  minimum inhibitory concentration: 8
[1]; strain X1.1
  minimum inhibitory concentration: 1
[1]; strain X400
  minimum inhibitory concentration: 128
[2]; strain 222
  minimum inhibitory concentration: 4
[2]; strain 270
  minimum inhibitory concentration: 16
[3]
  minimum inhibitory concentration: .015
[4]
  minimum inhibitory concentration: .015
[5]; strain 2041
  minimum inhibitory concentration: 128
[5]; strain X66
  minimum inhibitory concentration: > 128
[6]; res, strain 76
  minimum inhibitory concentration: .015
[6]; sens, strain C.L.
  minimum inhibitory concentration: .015
[7]; strain EC14
  minimum inhibitory concentration: .015
[7]; strain N10
  minimum inhibitory concentration: .03
[8]; strain KAE
  minimum inhibitory concentration: .25
[8]; strain X26
  minimum inhibitory concentration: < .008
[8]; strain X68
  minimum inhibitory concentration: .06
[9]; strain C32
  minimum inhibitory concentration: .03
[9]; strain EB17
  minimum inhibitory concentration: .03
[10]; strain 265A
  minimum inhibitory concentration: 4
[10]; strain EB5
  minimum inhibitory concentration: .125
[11]; strain 1335
  minimum inhibitory concentration: .06
[11]; strain X514
  minimum inhibitory concentration: .015
[13]; strain SE3
  minimum inhibitory concentration: .125
[13]; strain X99
  minimum inhibitory concentration: .06
[14]
  minimum inhibitory concentration: .06
[15]
  minimum inhibitory concentration: .06
[16]
  minimum inhibitory concentration: .03
[17]
  minimum inhibitory concentration: .03
[18]
  minimum inhibitory concentration: .015
[19]
  minimum inhibitory concentration: 128

## CO/N=C(\C(=O)N[C@@H]1C(=O)N2C(C(=O)O)=C(c3csc(-c4ccc([N+](=O)[O-])cc4)n3)CC[C@H]12)c1csc(N)n1 [Example 35, Sodium 7β-[(2-aminothiazol-4-yl)-Z-methoximinoacetylamino]-1-carba-(1-dethia)-3-[2-(4-nitrophenyl)thiazol-4-yl]-3-cephem-4-carboxylate]
[1]; strain S13E
  minimum inhibitory concentration: 32
[1]; strain V41
  minimum inhibitory concentration: 2
[1]; strain X1.1
  minimum inhibitory concentration: .5
[1]; strain X400
  minimum inhibitory concentration: > 128
[2]; strain 222
  minimum inhibitory concentration: 2
[2]; strain 270
  minimum inhibitory concentration: 4
[3]
  minimum inhibitory concentration: < .008
[4]
  minimum inhibitory concentration: < .008
[5]; strain 2041
  minimum inhibitory concentration: 4
[5]; strain X66
  minimum inhibitory concentration: > 128
[6]; res, strain 76
  minimum inhibitory concentration: .015
[6]; sens, strain C.L.
  minimum inhibitory concentration: .03
[7]; strain EC14
  minimum inhibitory concentration: .5
[7]; strain N10
  minimum inhibitory concentration: 1
[7]; strain TEM
  minimum inhibitory concentration: .5
[8]; strain KAE
  minimum inhibitory concentration: .5
[8]; strain X26
  minimum inhibitory concentration: < .008
[8]; strain X68
  minimum inhibitory concentration: 1
[9]; strain C32
  minimum inhibitory concentration: .5
[9]; strain EB17
  minimum inhibitory concentration: 1
[10]; strain 265A
  minimum inhibitory concentration: 16
[10]; strain EB5
  minimum inhibitory concentration: 1
[11]; strain 1335
  minimum inhibitory concentration: 4
[11]; strain X514
  minimum inhibitory concentration: 1
[13]; strain SE3
  minimum inhibitory concentration: 4
[13]; strain X99
  minimum inhibitory concentration: 4
[14]
  minimum inhibitory concentration: .5
[15]
  minimum inhibitory concentration: .5
[16]
  minimum inhibitory concentration: .25
[17]
  minimum inhibitory concentration: .25
[18]
  minimum inhibitory concentration: 2
[19]
  minimum inhibitory concentration: 64

— patent US5179088A, “1-Carba(dethia)cephalosporin antibiotics” (Eli Lilly and Company, priority 1990, dated 1993)
